In PMC10266688 (PLOS ONE, 2023):
Read-outs that look alike come from different tables or passages of the source.

Experiment: Single dose pharmacokinetics in CD1 mice (IV, IP, PO), plasma LC-MS/MS
Type: in vivo, mouse
Details: for Plasma concentration: individual (Group A)
Procedure: For single dose pharmacokinetic studies, plasma samples (40 μL) were mixed with 200 μL of a water-methanol mixture 1:9, v/v containing the internal standard elacridar at 400 ng/mL. After mixing by pipetting and centrifuging for 4 min at 6000 rpm, 1 μL of each supernatant was injected into LC-MS/MS system. […] Mobile phase A was acetonitrile/water (5:95, v/v) containing 1% formic acid, and mobile phase B was acetonitrile containing 0.1% formic acid. The gradient was initiated with mobile phase B at 15% and was held at 15% for 0.9 minutes with a flow rate of 0.4 mL/min, then increased to 100% and held for 0.1 minutes, and finally returned back to 15% mobile phase B and allowed to equilibrate until 2.2 minutes. […] The lower limit of quantitation (LLOQ) in plasma was 50 ng/mL.
Pharmacokinetic parameters were calculated from mean concentration-time data using non-compartmental methods in Phoenix WinNonlin version 8.3 (Certara, Princeton, NJ). Concentrations after the time 0 sample that were below the LLOQ were imputed with ½ that value. Any concentration that was determined to be an outlier by the Grubbs’s outlier test were excluded from analysis. The maximum plasma concentration (Cmax) and time to Cmax (Tmax) were the observed values. The AUClast was calculated using the log-linear trapezoidal method. AUC was extrapolated to infinity (AUCINF) by dividing the last quantifiable concentration by the terminal disposition rate constant (λz). The λz was determined from at least 3 points on the slope of the terminal phase of the concentration-time profile. The terminal half-life (T1/2) was determined by dividing 0.693 by λz. Apparent clearance (Cl/F) was calculated by dividing the dose administered by AUCINF. Apparent volume of distribution (V/F) was calculated by dividing Cl/F by λz. […] The oral and IP bioavailability was calculated as: F(%)={DoseIV×AUC(0−∞)PO/DosePO×AUC(0−∞)IV}.100%
The Method of Bailer was used to estimate the variance of AUC given the calculated variance of the mean concentration at each time point. […]. In all cases, p < 0.05 was considered statistically significant.
This was followed by a more detailed pharmacokinetic study, in which CD1 (n = 4; […]. Nine time points for IV and IP (5, 15, 30, 60, 120, 240, 360, 480 and 1440 min) and eight time points for PO (15, 30, 60,120, 240, 360, 480 and 1440 min) administration were set for this pharmacokinetic study. Each of the time point treatment group included 4 animals. Mice were injected IP with 2,2,2-tribromoethanol (150 mg/kg) prior to drawing the blood in microtainers containing K3EDTA via retro-orbital bleeding. Blood samples were centrifuged 10 min at 3000 rpm. Brain samples (right lobe) were collected and weighted. All samples were immediately processed, flash-frozen and stored at -70°C until subsequent analysis. […] Pharmacokinetic parameters were calculated from mean concentration-time data using non-compartmental methods in Phoenix WinNonlin version 8.3 (Certara, Princeton, NJ)). Using the Method of Bailer, there was no different in dose normalized AUClast by any route of administration (S17 Table).

[1] = CD-1, mouse, in vivo, ip, 20 mg/kg, Plasma concentration
[2] = CD-1, mouse, in vivo, ip, 20 mg/kg, Plasma concentration, Mean
[3] = male CD1 mice, IV 5 mg/kg, 0 min
[4] = male, CD1, mouse, in vivo, ip, 20 mg/kg
[5] = male, CD1, mouse, in vivo, iv, 5 mg/kg
[6] = male, CD1, mouse, in vivo, iv, 5 mg/kg, Plasma concentration
[7] = male, CD1, mouse, in vivo, iv, 5 mg/kg, Plasma concentration, Mean
[8] = male, CD1, mouse, in vivo, po, 50 mg/kg
[9] = male, CD-1, mouse, in vivo, po, 50 mg/kg, Plasma concentration
[10] = male, CD-1, mouse, in vivo, po, 50 mg/kg, Plasma concentration, Mean

## N#Cc1ccc(/C=C2/C(=O)/C(=C/c3ccc(C#N)cc3)C23CCNCC3)cc1 [Up284]
CD1, mouse, in vivo
  time to clear from the bloodstream to a low steady state: 2 to 4 h
[1]
  concentration at 15 min: 2.48 µg/mL
  concentration at 60 min: 2.4 µg/mL
  concentration at 120 min: 1.95 µg/mL
  concentration at 240 min: 1.54 µg/mL
  concentration at 1440 min: 0.75 µg/mL
[2]
  concentration at 5 min: 0.899 µg/mL
  concentration at 15 min: 2.18 µg/mL
  concentration at 30 min: 2.46 µg/mL
  concentration at 60 min: 2.4 µg/mL
  concentration at 120 min: 2.14 µg/mL
  concentration at 240 min: 1.74 µg/mL
  concentration at 360 min: 0.789 µg/mL
  concentration at 480 min: 0.731 µg/mL
  concentration at 1440 min: 0.61 µg/mL
CD-1 mice, IP 20 mg/kg, 0 min
  Plasma concentration, Mean: BQL
  Plasma concentration: BQL
CD-1 mice, PO 50 mg/kg, 0 min
  Plasma concentration, Mean: BQL
  Plasma concentration: BQL
IV 5, IP 20, PO 50 mg/kg
  adverse effects during PK study: No obvious adverse effects
Method of Bailer
  dose normalized AUClast by route of administration: no different
[3]
  Plasma concentration, Mean: BQL
  Plasma concentration: BQL
Male CD1 mice, IV 5 mg/kg, 1440 min, class symbol
  Plasma concentration: BQL
[4]
  AUC(0-inf): 69.5 µg·h/mL
  AUC(0-t): 23 µg·h/mL
  Cmax: 2.46 µg/mL
  Tmax: 0.5 h
  bioavailability: 78%
  half-life: 52.8 h
  k el: 3.65e-06 s⁻¹
[5]
  AUC(0-inf): 9.77 µg·h/mL
  AUC(0-t): 6.58 µg·h/mL
  Cmax: 1.51 µg/mL
  Vd: 10 L/kg
  half-life: 19 h
  k el: 1.01e-05 s⁻¹
[6]
  concentration at 5 min: 1.61 µg/mL
  concentration at 15 min: 1.5 µg/mL
  concentration at 30 min: 1.53 µg/mL
  concentration at 60 min: 0.793 µg/mL
  concentration at 120 min: 0.67 µg/mL
  concentration at 240 min: 0.504 µg/mL
  concentration at 360 min: 0.256 µg/mL
[7]
  concentration at 5 min: 1.45 µg/mL
  concentration at 15 min: 1.51 µg/mL
  concentration at 30 min: 1.26 µg/mL
  concentration at 60 min: 0.8 µg/mL
  concentration at 120 min: 0.669 µg/mL
  concentration at 240 min: 0.421 µg/mL
  concentration at 360 min: 0.238 µg/mL
  concentration at 480 min: 0.19 µg/mL
  concentration at 1440 min: 0.116 µg/mL
[8]
  AUC(0-inf): 22.8 µg·h/mL
  AUC(0-t): 15.1 µg·h/mL
  Cmax: 1.83 µg/mL
  Tmax: 0.25 h
  bioavailability: 23%
  half-life: 12.7 h
  k el: 1.51e-05 s⁻¹
[9]
  concentration at 30 min: 1.46 µg/mL
  concentration at 60 min: 1.56 µg/mL
  concentration at 120 min: 1.65 µg/mL
  concentration at 360 min: 0.318 µg/mL
[10]
  concentration at 15 min: 1.83 µg/mL
  concentration at 30 min: 1.28 µg/mL
  concentration at 60 min: 1.43 µg/mL
  concentration at 120 min: 1.22 µg/mL
  concentration at 240 min: 0.798 µg/mL
  concentration at 360 min: 0.473 µg/mL
  concentration at 480 min: 0.589 µg/mL
  concentration at 1440 min: 0.425 µg/mL
male, mouse, in vivo, CD-1 mice, PO 50 mg/kg, 240 min, individual (Groups A-D), read-out: Plasma concentration
  concentration at 240 min: 0.366 µg/mL
male, mouse, in vivo, CD-1 mice, PO 50 mg/kg, 480 min, individual (Groups A-D), read-out: Plasma concentration
  concentration at 480 min: 0.376 µg/mL
mouse, in vivo, CD-1 mice, IP 20 mg/kg, 5 min, individual (Groups A-D), read-out: Plasma concentration
  concentration at 5 min: 1.06 µg/mL
mouse, plasma, intraperitoneal, CD1 mice, IP 20 mg/kg vs IV 5 mg/kg, read-out: IP bioavailability
  bioavailability: 87%
mouse, plasma, CD1 mice, PO 50 mg/kg vs IV 5 mg/kg, read-out: oral bioavailability
  bioavailability: 23%
